From patent US11753446B2, “Beta-hairpin peptidomimetics” (POLYPHOR AG, priority 2014, dated 2023)
Where a SMILES comes first, the peptide text is derived from it. Bridges are numbered along the chain shown (N, C = ends). [ ]: non-standard residue; d: D form. Tle = CC(C)(C)[C@H](N)C(=O)O; dDab = NCC[C@@H](N)C(=O)O; Orn = NCCC[C@H](N)C(=O)O; Dab = NCC[C@H](N)C(=O)O

Key:
[1] = test system: Escherichia coli ATCC 25922; assay type: cell-based; conditions: ATCC 25922
Experimental: (§1) Stock solutions were kept at +4° C., light protected.
(§2) The selective antimicrobial activities of the peptides were determined in 96-well plates (Greiner, polystyrene) by the standard NCCLS broth microdilution method (National Committee for Clinical Laboratory Standards 1993. Methods for dilution antimicrobial susceptibility tests for bacteria that grow aerobically, 3rd ed. Approved standard M7-A6; National Committee for Clinical laboratory standards, Wayne, Pa.) with slight modifications. Inocula of the microorganisms were diluted into Mueller-Hinton II (MH, cation adjusted) broth and compared with a 0.5 McFarland standard to give appr. 10^6 colony forming units (CFU)/mL. Aliquots (90 μl) of inoculate were added to 10 μl of MH broth+P-80 (Polysorbate 80, 0.002% final concentration) containing the peptide in serial two-fold dilutions. The following microorganisms were used to determine antibiotic selectivity of the peptides: Escherichia coli ATCC 25922, Klebsiella pneumoniae ATCC 13883 and Acinetobacter baumannii DSM 30008.

[2] = test system: Acinetobacter baumannii DSM 30008; assay type: cell-based; conditions: DSM 30008
Experimental: as §1, §2

[3] = test system: Klebsiella pneumoniae ATCC 13883; assay type: cell-based; conditions: ATCC 13883
Experimental: as §1, §2

[4] = test system: human red blood cells (hRBC); assay: Hemolysis: hemolytic activity at 100 μg/mL, 1 h at 37° C.; conditions: red cells of human, 1 h, 100
Experimental: Lyophilized peptides were weighed on a Microbalance (Mettler MT5) and dissolved in sterile water to a final concentration of 1 mg/mL. Stock solutions were kept at +4° C., light protected.
The peptides were tested for their hemolytic activity against human red blood cells (hRBC). Fresh hRBC were washed three times with phosphate buffered saline (PBS) and centrifuged for 5 min at 3000×g. Compounds (100 μg/mL) were incubated with 20% hRBC (v/v) for 1 h at 37° C. and shaking at 300 rpm. The final erythrocyte concentration was approximately 0.9×10^9 cells/mL. A value of 0% and 100% cell lyses, respectively, was determined by incubation of hRBC in the presence of PBS containing 0.001% acetic acid and 2.5% Triton X-100 in H2O, respectively. The samples were centrifuged, the supernatants were 8-fold diluted in PBS buffer and the optical densities (OD) were measured at 540 nm.
Percent hemolysis was calculated as follows: (OD540peptide/OD540H2O)×100%.

SMILES	Escherichia coli ATCC 25922 MIC [1] [µg/mL]	Acinetobacter baumannii DSM 30008 MIC [2] [µg/mL]	Klebsiella pneumoniae ATCC 13883 MIC [3] [µg/mL]	Hemolysis at 100 μg/mL [4] [%]
CC(C)C[C@@H]1NC(=O)[C@H](CCCNC(=N)N)NC(=O)[C@@H](CCN)NC(=O)[C@H](Cc2ccc(O)cc2)NC(=O)[C@@H]2CSSC[C@H](NC1=O)C(=O)N[C@@H](Cc1ccc(O)cc1)C(=O)N[C@@H](CC(N)=O)C(=O)N[C@@H](CCCN)C(=O)N[C@H](CCN)C(=O)N[C@@H](CCN)C(=O)N[C@@H](Cc1c[nH]c3ccccc13)C(=O)N[C@@H](CO)C(=O)N[C@@H](Cc1ccc(O)cc1)C(=O)N2 [Example 11, cyclo(-Leu-Cys-Tyr-Asn-Orn-^DDab-Dab-Trp-Ser-Tyr-Cys-Tyr-^DDab-Arg-)] (HELM PEPTIDE1{C.Y.N.[Orn].[NCC[C@@H](N[*:1])C(=O)[*:2]].[Dab].W.S.Y.C.Y.[NCC[C@@H](N[*:1])C(=O)[*:2]].R.L}$PEPTIDE1,PEPTIDE1,1:R3-10:R3|PEPTIDE1,PEPTIDE1,1:R1-14:R2$$$V2.0)	0.25	0.5	0.25	4
CC[C@H](C)[C@@H]1NC(=O)[C@@H]2CCCN2C(=O)[C@@H](CCN)NC(=O)[C@H](CO)NC(=O)[C@@H]2CSSC[C@H](NC1=O)C(=O)N[C@@H](Cc1ccc(O)cc1)C(=O)N[C@@H](CCN)C(=O)N[C@@H](CCCN)C(=O)N[C@H](CCN)C(=O)N[C@@H](CCN)C(=O)N[C@@H](Cc1c[nH]c3ccccc13)C(=O)N[C@@H](CCN)C(=O)N[C@@H](C(C)(C)C)C(=O)N2 [Example 14, cyclo(-Ile-Cys-Tyr-Dab-Orn-^DDab-Dab-Trp-Dab-tBuGly-Cys-Ser-^DDab-Pro-)] (cyclo(CS[dDab]PICY[Dab][Orn][dDab][Dab]W[Dab][Tle]); disulfide 1-6)	0.5	1	1	1
CC(C)C[C@@H]1NC(=O)[C@H](CCCNC(=N)N)NC(=O)[C@@H](CCN)NC(=O)[C@H](C)NC(=O)[C@@H]2CSSC[C@H](NC1=O)C(=O)N[C@@H](Cc1ccc(O)cc1)C(=O)N[C@@H](CC(N)=O)C(=O)N[C@@H](CCCN)C(=O)N[C@H](CCN)C(=O)N[C@@H](CCN)C(=O)N[C@@H](Cc1c[nH]c3ccccc13)C(=O)N[C@@H](CO)C(=O)N[C@@H](Cc1ccc(O)cc1)C(=O)N2 [Example 71, cyclo(-Leu-Cys-Tyr-Asn-Orn-^DDab-Dab-Trp-Ser-Tyr-Cys-Ala-^DDab-Arg-)] (HELM PEPTIDE1{A.[NCC[C@@H](N[*:1])C(=O)[*:2]].R.L.C.Y.N.[Orn].[NCC[C@@H](N[*:1])C(=O)[*:2]].[Dab].W.S.Y.C}$PEPTIDE1,PEPTIDE1,5:R3-14:R3|PEPTIDE1,PEPTIDE1,1:R1-14:R2$$$V2.0)	1.5	1.5	1	1
CC(C)C[C@@H]1NC(=O)[C@H](CCCNC(=N)N)NC(=O)[C@@H](CCN)NC(=O)[C@H](C(C)C)NC(=O)[C@@H]2CSSC[C@H](NC1=O)C(=O)N[C@@H](Cc1ccc(O)cc1)C(=O)N[C@@H](CC(N)=O)C(=O)N[C@@H](CCN)C(=O)N[C@H](CCN)C(=O)N[C@@H](CCN)C(=O)N[C@@H](Cc1c[nH]c3ccccc13)C(=O)N[C@@H](CO)C(=O)N[C@@H](Cc1ccc(O)cc1)C(=O)N2 [Example 56, cyclo(-Leu-Cys-Tyr-Asn-Dab-^DDab-Dab-Trp-Ser-Tyr-Cys-Val-^DDab-Arg-)] (HELM PEPTIDE1{C.V.[NCC[C@@H](N[*:1])C(=O)[*:2]].R.L.C.Y.N.[Dab].[NCC[C@@H](N[*:1])C(=O)[*:2]].[Dab].W.S.Y}$PEPTIDE1,PEPTIDE1,1:R3-6:R3|PEPTIDE1,PEPTIDE1,1:R1-14:R2$$$V2.0)	1	0.625	1	1
CC(C)C[C@@H]1NC(=O)[C@H](CCCNC(=N)N)NC(=O)[C@@H](CCN)NC(=O)[C@H](Cc2ccc(O)cc2)NC(=O)[C@@H]2CSSC[C@H](NC1=O)C(=O)N[C@@H](Cc1ccc(O)cc1)C(=O)N[C@@H](C)C(=O)N[C@@H](CCCN)C(=O)N[C@H](CCN)C(=O)N[C@@H](CCN)C(=O)N[C@@H](Cc1c[nH]c3ccccc13)C(=O)N[C@@H](C)C(=O)N[C@@H](Cc1ccc(O)cc1)C(=O)N2 [Example 17, cyclo(-Leu-Cys-Tyr-Ala-Orn-^DDab-Dab-Trp-Ala-Tyr-Cys-Tyr-^DDab-Arg-)] (HELM PEPTIDE1{A.[Orn].[NCC[C@@H](N[*:1])C(=O)[*:2]].[Dab].W.A.Y.C.Y.[NCC[C@@H](N[*:1])C(=O)[*:2]].R.L.C.Y}$PEPTIDE1,PEPTIDE1,8:R3-13:R3|PEPTIDE1,PEPTIDE1,1:R1-14:R2$$$V2.0)	0.5	0.5	1	4
CC(C)C[C@@H]1NC(=O)[C@H](CCCNC(=N)N)NC(=O)[C@@H](CCN)NC(=O)[C@H]([C@@H](C)O)NC(=O)[C@@H]2CSSC[C@H](NC1=O)C(=O)N[C@@H](Cc1ccc(O)cc1)C(=O)N[C@@H](CC(N)=O)C(=O)N[C@@H](CCCN)C(=O)N[C@H](CCN)C(=O)N[C@@H](CCN)C(=O)N[C@@H](Cc1c[nH]c3ccccc13)C(=O)N[C@@H](CO)C(=O)N[C@@H](Cc1ccc(O)cc1)C(=O)N2 [Example 74, cyclo(-Leu-Cys-Tyr-Asn-Orn-^DDab-Dab-Trp-Ser-Tyr-Cys-Thr-^DDab-Arg-)] (HELM PEPTIDE1{C.T.[NCC[C@@H](N[*:1])C(=O)[*:2]].R.L.C.Y.N.[Orn].[NCC[C@@H](N[*:1])C(=O)[*:2]].[Dab].W.S.Y}$PEPTIDE1,PEPTIDE1,1:R3-6:R3|PEPTIDE1,PEPTIDE1,1:R1-14:R2$$$V2.0)	4	1.5	1	1
CC(C)C[C@@H]1NC(=O)[C@H](CCCNC(=N)N)NC(=O)[C@@H](CCN)NC(=O)[C@H](C(C)C)NC(=O)[C@@H]2CSSC[C@H](NC1=O)C(=O)N[C@@H](Cc1ccc(O)cc1)C(=O)N[C@@H](CC(N)=O)C(=O)N[C@@H](CCCN)C(=O)N[C@H](CCN)C(=O)N[C@@H](CCN)C(=O)N[C@@H](Cc1c[nH]c3ccccc13)C(=O)N[C@@H](CO)C(=O)N[C@@H](Cc1ccc(O)cc1)C(=O)N2 [Example 10, cyclo(-Leu-Cys-Tyr-Asn-Orn-^DDab-Dab-Trp-Ser-Tyr-Cys-Val-^DDab-Arg-)] (HELM PEPTIDE1{C.V.[NCC[C@@H](N[*:1])C(=O)[*:2]].R.L.C.Y.N.[Orn].[NCC[C@@H](N[*:1])C(=O)[*:2]].[Dab].W.S.Y}$PEPTIDE1,PEPTIDE1,1:R3-6:R3|PEPTIDE1,PEPTIDE1,1:R1-14:R2$$$V2.0)	0.5	0.5	1	1
CC[C@H](C)[C@@H]1NC(=O)[C@@H]2CCCN2C(=O)[C@@H](CCN)NC(=O)[C@H](CO)NC(=O)[C@H](C)NC(=O)[C@H](C(C)(C)C)NC(=O)[C@H](CCN)NC(=O)[C@H](Cc2c[nH]c3ccccc23)NC(=O)[C@H](CCN)NC(=O)[C@@H](CCN)NC(=O)[C@H](CCCN)NC(=O)[C@H](CCN)NC(=O)[C@H](Cc2ccc(O)cc2)NC(=O)[C@H]([C@@H](C)O)NC1=O [Example 48, cyclo(-Ile-Thr-Tyr-Dab-Orn-^DDab-Dab-Trp-Dab-tBuGly-Ala-Ser-^DDab-Pro-)] (cyclo(AS[dDab]PITY[Dab][Orn][dDab][Dab]W[Dab][Tle]))	1	8	2	1
CC(C)C[C@@H]1NC(=O)[C@H](CCN)NC(=O)[C@@H](CCN)NC(=O)[C@H](CO)NC(=O)[C@@H]2CSSC[C@H](NC1=O)C(=O)N[C@@H](Cc1ccc(O)cc1)C(=O)N[C@@H](CC(N)=O)C(=O)N[C@@H](CCCN)C(=O)N[C@H](CCN)C(=O)N[C@@H](CCN)C(=O)N[C@@H](Cc1c[nH]c3ccccc13)C(=O)N[C@@H](CO)C(=O)N[C@@H](Cc1ccc(O)cc1)C(=O)N2 [Example 8, cyclo(-Leu-Cys-Tyr-Asn-Orn-^DDab-Dab-Trp-Ser-Tyr-Cys-Ser-^DDab-Dab-)] (HELM PEPTIDE1{C.S.[NCC[C@@H](N[*:1])C(=O)[*:2]].[Dab].L.C.Y.N.[Orn].[NCC[C@@H](N[*:1])C(=O)[*:2]].[Dab].W.S.Y}$PEPTIDE1,PEPTIDE1,1:R3-6:R3|PEPTIDE1,PEPTIDE1,1:R1-14:R2$$$V2.0)	1	1.5	0.5	1
